Key:
[1] = molecular target: T1, human TLR4/MD2 (Homo sapiens, UniProt O00206+Q9Y6Y9); experiment: hTLR4/MD2-HEK293 transfectant SEAP (QUANTI-Blue) dose response, AUC; assay type: cell-based; details: 1 μg/ml to 4 ng/ml, 24 h, SEAP OD 650 nm vs log concentration
T1 construct: host or cells: HEK293
Experimental: Cells were seeded in tissue culture treated clear flat bottom polystyrene 96 well plates (Costar, 3598) at 1e4 cells/well. Concentration-response curves were generated by addition of test compounds and incubation for 20 h at 37°C in an atmosphere of 5% CO2. LPS (E. coli 0111:B4, Ultra-pure, Invivogen) or PHAD (Avanti Polar Lipids) was used as a positive control. The SEAP released was quantified using p nitrophenyl phosphate as a substrate, and the absorbance at 405 nm was measured at 30 second intervals over several minutes using a microplate reader. Some data are recorded as the pEC50, the negative log of the EC50 value. Other data generated from these reporter cell lines were converted to AUC (area under the curve) values by interpolation of fitted cubic spline curve between OD value and log concentration levels. The calculation is performed using MESS package in statistical software R (www.r-project.org/).
Fig 4 Ugi compounds preferentially activate TLR4-HEK transfectants expressing human MD2. A-B) HEK293 cells transfected with human TLR4/MD2 or mouse TLR4/MD2 (InVivogen) were stimulated with TLR4 agonists including MPL, PHAD, and Ugi compounds at 1 μg/ml to 4 ng/ml and with LPS at 25 ng/ml to 64 pg/ml for 24 h. SNs were analyzed for SEAP content by the QUANTI-Blue assay (InVivogen) and analysis at 650 nm by spectrophotometer. AUC (area under the curve) values were calculated as in Methods. No AUC value was calculated for LPS since it was utilized with a different dose range. C) HEK transfectants with cis- or trans-species expression of TLR4, MD2, and CD14 were stimulated with Ugi compounds in a dose response range of 9 μM to 1 nM or with LPS (boxes) at 75 ng/ml to 5 pg/ml for 48 h. Data was obtained as Vmax calculated over the initial linear portion of the kinetic absorbance measurements. The AUC (area under the curve) value for the dose response curve of Vmax vs log10 (molar units) was calculated for each compound using Trapezoidal rule. TEXT PRINTED IN THE PICTURE: (A) MPL: hTLR4-HEK AUC: 0.55 | (A) AZ617: hTLR4-HEK AUC: 5.90 | (A) AZ618: hTLR4-HEK AUC: 6.56 | (A) AZ839: hTLR4-HEK AUC: 6.00 | (A) AZ161: hTLR4-HEK AUC: 5.54 | (A) AZ902: hTLR4-HEK AUC: 7.04 | (A) GLA: hTLR4-HEK AUC: 3.75 | (B) MPL: mTLR4-HEK AUC: 13.27 | (B) AZ617: mTLR4-HEK AUC: 0.89 | (B) AZ618: mTLR4-HEK AUC: 1.03 | (B) AZ839: mTLR4-HEK AUC: 0.93 | (B) AZ161: mTLR4-HEK AUC: 0.99 | (B) AZ902: mTLR4-HEK AUC: 1.55 | (B) GLA: mTLR4-HEK AUC: 14.24

[2] = tested on: guinea pig TLR4, MD2, and CD14; experiment: Guinea-pig TLR4 reporter agonist assay (HEK293 SEAP, DDAO phosphate); assay type: cell-based; details: 10^-5 to 10^-10 M, 20 h, % of maximum 1 μM LPS signal
Description: Fragments of guinea pig TLR4 were identified by searching the Ensembl genome browser database (http://www.ensembl.org/index.html) using the BLAST algorithm and discontiguous mega blast of the NCBI trace archives (http://www.ncbi.nlm.nih.gov/blast/tracemb.shtml) using the DNA sequence of human TLR4 Isotype A as the search string. Guinea pig CD14 was assembled in silico from fragments identified in the NCBI trace archives using human CD14 as the search string (76% similar/72% identical). Fragments corresponding to guinea pig MD2 were identified by searching the Ensembl genome browser database and NCBI trace archives with human MD2 as the search string (72% similar/68% identical). Sequence information was used to design primers for PCR amplification of full length coding sequences from guinea pig spleen cDNA. Sequences for guinea pig MD2 and CD14 were as predicted in silico. gpTLR4 was cloned into the expression vector pUNO (Invivogen). gpMD2 and gpCD14 were cloned together into pDUO (Invivogen) for co-expression. gpMD2 was also cloned into pUNO for transient co-expression with gpTLR4. A stable mixed population expressing gpTLR4 /CD14/MD2 was made by transfecting the gpTLR4/pUNO and gpMD2 + gpCD14/pDUO constructs into a HEK293 cell-line containing a stably integrated pNiFty2-SEAP reporter plasmid (Invivogen) using Fugene-6 (Roche). […]
SEAP detection assay was performed as previous described by. […] Plates were read using the Envision plate reader excitation λex 620nm, emission λem 665nm. Data was analyzed as % maximum 1 μM Ultrapure (0111:B4) LPS activation signal (Invivogen).
Fig 5 Ugi compounds activate guinea pig TLR4/MD2-HEK transfectants. […] The plates were developed with the addition of DDAO phosphate as substrate and then read on a plate reader at 620 nm. Data were analyzed as % of the maximum 1 μM Ultrapure (0111:B4) LPS activation signal.

T1 sequence (O00206 24-839): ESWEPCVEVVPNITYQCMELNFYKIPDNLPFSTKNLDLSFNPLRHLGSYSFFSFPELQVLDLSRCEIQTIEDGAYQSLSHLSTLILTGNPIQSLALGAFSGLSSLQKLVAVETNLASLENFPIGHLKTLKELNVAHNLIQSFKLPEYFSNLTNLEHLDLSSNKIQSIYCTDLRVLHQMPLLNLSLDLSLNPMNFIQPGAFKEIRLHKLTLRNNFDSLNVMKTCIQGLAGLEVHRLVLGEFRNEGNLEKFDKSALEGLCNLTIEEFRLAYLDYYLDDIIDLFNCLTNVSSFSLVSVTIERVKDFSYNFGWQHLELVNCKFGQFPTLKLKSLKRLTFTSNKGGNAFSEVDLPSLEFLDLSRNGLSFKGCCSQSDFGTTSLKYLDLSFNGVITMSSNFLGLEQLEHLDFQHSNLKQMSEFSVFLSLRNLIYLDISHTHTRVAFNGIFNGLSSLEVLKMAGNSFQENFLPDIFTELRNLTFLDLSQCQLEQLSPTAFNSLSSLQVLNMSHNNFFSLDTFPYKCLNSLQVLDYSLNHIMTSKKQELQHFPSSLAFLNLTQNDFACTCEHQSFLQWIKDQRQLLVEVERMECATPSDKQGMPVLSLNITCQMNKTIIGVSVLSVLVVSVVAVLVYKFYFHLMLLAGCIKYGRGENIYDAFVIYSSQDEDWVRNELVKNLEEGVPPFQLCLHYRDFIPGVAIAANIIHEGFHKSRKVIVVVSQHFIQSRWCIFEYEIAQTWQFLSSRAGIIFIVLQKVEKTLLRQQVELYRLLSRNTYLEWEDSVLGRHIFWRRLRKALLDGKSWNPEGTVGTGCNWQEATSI
T1 sequence (Q9Y6Y9 19-160): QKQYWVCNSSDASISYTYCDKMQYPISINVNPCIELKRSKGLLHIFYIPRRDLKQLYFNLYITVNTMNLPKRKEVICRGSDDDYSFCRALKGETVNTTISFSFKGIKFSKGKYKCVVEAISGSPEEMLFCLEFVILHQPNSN

hTLR4-HEK AUC [1]	SMILES	potency on gpTLR4/gpMD2/gpCD14 HEK293 transfectants [2]
7.04	CC(C)(C)c1ccc(N(C(=O)c2cc(-c3ccccc3)n(-c3ccccc3)n2)C(C(=O)NC2CCCC2)c2ccc(CC(=O)O)cc2)cc1 (stereo not shown) [AZ902]	less active but still positive
5.90	O=C(O)Cc1ccc(C(C(=O)NC2CCCC2)N(C(=O)c2cc(-c3ccccc3)n(-c3ccccc3)n2)c2ccc3c(c2)CCC3)cc1 (stereo not shown) [AZ617]	potency comparable to LPS
6.56	Cc1cc(C)cc(N(C(=O)c2cc(-c3ccccc3)n(-c3ccccc3)n2)C(C(=O)NC2CCCC2)c2ccc(CC(=O)O)cc2)c1 (stereo not shown) [AZ618, 2-(4-(2-(cyclopentylamino)-1-(N-(3,5-dimethylphenyl)-1,5-diphenyl-1H-pyrazole-3-carboxamido)-2-oxoethyl)phenyl)acetic acid]	–
5.54	Cc1ccc(N(C(=O)c2cc(-c3ccccc3)n(-c3ccccc3)n2)C(C(=O)NC2CCCC2)c2ccc(CC(=O)O)cc2)cc1Cl (stereo not shown) [AZ161]	potency comparable to LPS

Reference: paper PMC5063506, “A Novel Class of Small Molecule Agonists with Preference for Human over Mouse TLR4 Activation” (PLoS ONE, 2016)
